Like-named read-outs stand apart in the source and are kept apart here.
Columns and labels:
[1] = acute toxicity (LD50, mice); settings: mouse, in vivo, 14 days
Experimental: The acute toxicity of the products was investigated in male SWISS/IOPS mice weighing approximately 22 g. The 50% lethal dose (LD50) was calculated by the method of L. J. REED and H. MUNCH (Am. J. Hyg. 1939-37-493) 14 days following the […] treatment of batches of 10 animals per dose and on the basis of 4 to 6 doses per product. The results of this investigation are given in table 3 for the products of examples 1 to 8 and in table 4 for the products of examples 9 to 12.

thromboxane synthetase [2] = target: T1, thromboxane synthetase (Oryctolagus cuniculus, UniProt G1TAZ9); assay: inhibition of TXB2 synthesis (thromboxane synthetase) in washed rabbit platelets; type: cell-based; settings: for activity relative to 1-benzyl imidazole: reference 1-benzyl imidazole
T1 construct: carried out in vitro on washed rabbit platelets; endogenous in cells; host or cells: washed rabbit platelets
T1 sequence (G1TAZ9 1-530): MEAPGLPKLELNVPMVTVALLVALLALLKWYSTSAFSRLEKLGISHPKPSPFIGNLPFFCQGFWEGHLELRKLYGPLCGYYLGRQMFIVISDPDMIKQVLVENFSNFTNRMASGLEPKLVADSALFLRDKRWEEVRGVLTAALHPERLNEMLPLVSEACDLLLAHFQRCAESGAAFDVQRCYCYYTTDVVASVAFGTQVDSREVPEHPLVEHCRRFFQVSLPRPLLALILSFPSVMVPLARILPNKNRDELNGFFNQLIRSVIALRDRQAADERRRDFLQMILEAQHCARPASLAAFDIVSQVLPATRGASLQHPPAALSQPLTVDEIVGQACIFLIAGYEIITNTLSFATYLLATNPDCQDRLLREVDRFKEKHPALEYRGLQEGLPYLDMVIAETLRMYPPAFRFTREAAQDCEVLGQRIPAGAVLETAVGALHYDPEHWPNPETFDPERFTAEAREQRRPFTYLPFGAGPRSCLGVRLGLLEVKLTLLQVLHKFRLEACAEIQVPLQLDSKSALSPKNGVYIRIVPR
Experimental: (§1) The test performed was carried out in vitro on washed rabbit platelets. It was based on the publications of NEEDLEMAN (1977. Proc. Natl. Acad. Sci. 74, 1716) and SALMON (1982, Cardiovascular Pharmacol. of the Prostaglandins--Raven Press N.Y. pp. 7 to 22). It makes it possible both to determine the reduction of the synthesis of TXB2 and also the possible increase of the synthesis of PGE2. Thus, it is possible to determine the activity of the products on the PG:TX ratio.
(§2) The results given in the following tables are expressed in CEx%, i.e. in micromolar concentrations per liter permitting an inhibition by x% of the synthesis of TXB2. In the adjacent column, the symbol + means that the effect also causes an increase in the synthesis of PGE2.

gastric mucosa = assay: cytoprotection test, gastric ulceration caused by absolute ethanol; type: in vivo, Sprague Dawley rats; settings: rat; for ED50 values relative to the two routes compared: oral versus parenteral (s.c.) route
Experimental: The cytoprotective activity was investigated in connection with the stressing of the gastric mucosa caused by ethanol.
The cytoprotection test was carried out in accordance with the procedure described by A. ROBERT et al (Gastroenterology 1979-77-433). Batches of six male Sprague Dawley rats, which had not received solid food for 24 hours before the test, received by the oral route 1 ml/rat of absolute ethanol, after receiving the product to be tested 30 minutes beforehand by the subcutaneous […] 1 hour beforehand by the oral route. One hour after ingesting the ethanol, the rats were killed by stretching and their stomachs were carefully removed, opened along the greater curvature, washed under running water and spread out. The ulcerations were then marked and measured under a binocular lamp. An index representing the sum of the lengths of the ulcers is then determined for each rat and the mean value of these indexes for each batch is calculated and compared with that of the control batch using the Student "t" test. The 50% effective dose (ED50) is then graphically determined when possible. In other cases, the percentage inhibition obtained with the aid of the maximum tested dose is given. The results are given in table 5 for the products of examples 1 to 8 and in table 6 for the products of examples 9 to 12.

synthesis of PGE2 = assay: increase of PGE2 synthesis in washed rabbit platelets; type: cell-based; parameters: key: +: the effect also causes an increase in the synthesis of PGE2; settings: in vitro
Experimental: as §1, §2

thromboxane synthetase [3] = settings: human platelets; literature; cited from earlier work
[4] = oral route, read-out: LD50 % oral route
[5] = washed rabbit platelets, in vitro, 50% inhibition of TXB2 synthesis, read-out: Inh. TX B2 CE50%
[6] = sc, s.c. route, 30 minutes before absolute ethanol, read-out: ED50% s.c. route
[7] = ip, read-out: LD50 % i.p. route
[8] = oral route, 1 hour before absolute ethanol, read-out: ED50% oral route

Structure (SMILES)	LD50 at 336 h [1, 4] [mg/kg]	IC50 (thromboxane synthetase [2]; [5]) [µM]	ED50 (gastric mucosa; [6]) [mg/kg]	Incr. PGE2 (synthesis of PGE2)	LD50 at 336 h [1, 7] [mg/kg]	further results
CN(C)CC(C)(C)n1ccnc1 [Ex. 6B]	> 1180	50				
CCC(Cc1ccccc1)(CN(C)C)n1ccnc1 (stereo not drawn) [Ex. 7B]	384		8.5			IC35 (thromboxane synthetase [2]; washed rabbit platelets, in vitro, 35% inhibition of TXB2 synthesis, read-out: Inh. TX B2 CE35%): 100 µM
CN(C)C(C)(Cn1ccnc1)c1ccc(-c2ccccc2)cc1 (stereo not drawn) [EX. 11]	183	11.2		+		ED40 (gastric mucosa; sc, s.c. route, 30 minutes before absolute ethanol): 10 mg/kg
CCC(Cn1ccnc1)(c1ccccc1)N(C)C (stereo not drawn) [Ex. 1A, 1-[(2-phenyl-2-ethyl)-2-N,N-dimethylaminoethyl]-imidazole]	559	3.7	11	+	326	ED50 (gastric mucosa; [8]): 13 mg/kg; ED50 values relative to the two routes compared (gastric mucosa): roughly equivalent; activity relative to 1-benzyl imidazole (thromboxane synthetase [2]; washed rabbit platelets): equal to clearly superior activity
c1ccc(Cn2ccnc2)cc1 [1-Benzyl-Imidazole, 1-benzyl imidazole, reference compound]						IC50 (thromboxane synthetase [2]): 13.4 µM; thromboxane synthetase inhibition in words (thromboxane synthetase [3]): thromboxane synthetase inhibitor
COc1ccc(CC(C)(Cn2ccnc2)N(C)C)cc1 (stereo not drawn) [EX. 9, 1-[(2-p-methoxybenzyl-2-methyl)-2-N,N-dimethylaminoethyl]imidazole dihemimaleate]	758	4.5		+	231	activity relative to 1-benzyl imidazole (thromboxane synthetase [2]; washed rabbit platelets): equal to clearly superior activity
CCCCCC(Cn1ccnc1)(c1ccccc1)N(C)C (stereo not drawn) [Ex. 8A]	287	0.56	25	+		activity relative to 1-benzyl imidazole (thromboxane synthetase [2]; washed rabbit platelets): equal to clearly superior activity
CCC(Cn1cnc(-c2ccccc2)c1-c1ccccc1)(c1ccccc1)N(C)C (stereo not drawn) [Ex. 3A]	> 1150					
CCC(CN(C)C)(c1ccccc1)n1ccnc1 (stereo not drawn) [Ex. 1B, 1-[(1-phenyl-1-ethyl)-2-N,N-dimethylaminoethyl]-imidazole]	285	17.4	8.1	+	145	ED50 (gastric mucosa; [8]): 7.1 mg/kg; ED50 values relative to the two routes compared (gastric mucosa): roughly equivalent
CCC(CN(C)C)(c1ccccc1)n1ccnc1C (stereo not drawn) [Ex. 2B, 1-[(1-phenyl-1-ethyl)-2-N,N-dimethylaminoethyl]-2-methylimidazole]	393		10		137	ED50 (gastric mucosa; [8]): 12 mg/kg; ED50 values relative to the two routes compared (gastric mucosa): roughly equivalent; IC18 (thromboxane synthetase [2]; washed rabbit platelets, in vitro, 18% inhibition of TXB2 synthesis, read-out: Inh. TX B2 CE18%): 50 µM
CCC(CN(C)C)(c1ccccc1)n1cnc(-c2ccccc2)c1-c1ccccc1 (stereo not drawn) [Ex. 3B]	> 1150					ED50 (gastric mucosa; [8]): 26 mg/kg
CCC(Cn1ccnc1C)(c1ccccc1)N(C)C (stereo not drawn) [Ex. 2A, 1-[(2-phenyl-2-ethyl)-2-N,N-dimethylaminoethyl]-2-methylimidazole]	500		12.6		157	ED50 (gastric mucosa; [8]): 12 mg/kg; ED50 values relative to the two routes compared (gastric mucosa): roughly equivalent; IC10 (thromboxane synthetase [2]; washed rabbit platelets, in vitro, 10% inhibition of TXB2 synthesis, read-out: Inh. TX B2 CE10%): 50 µM
CCC(CN(C)C)(c1ccccc1)n1ccnc1-c1ccccc1 (stereo not drawn) [Ex. 5B]	840					IC20 (thromboxane synthetase [2]; washed rabbit platelets, in vitro, 20% inhibition of TXB2 synthesis, read-out: Inh. TX B2 CE20%): 50 µM
CCC(Cn1ccnc1)(c1ccccc1)N(C)C (single isomer, unassigned) [EX. 12, 1-[(2-phenyl-2-ethyl)-2-N,N-dimethylaminoethyl]-imidazole]	780	11.3	5.3	+		
CCc1nc(C)cn1C(CC)(CN(C)C)c1ccccc1 (stereo not drawn) [Ex. 4B]	298		4		47	
CN(C)C(C)(COc1ccc(Cl)cc1)Cn1ccnc1 (stereo not drawn) [EX. 10]	86	13.2	10	+	32	
CN(C)C(C)(C)Cn1ccnc1 [Ex. 6A]	> 1180					IC41 (thromboxane synthetase [2]; washed rabbit platelets, in vitro, 41% inhibition of TXB2 synthesis, read-out: Inh. TX B2 CE41%): 50 µM
CCC(Cc1ccccc1)(Cn1ccnc1)N(C)C (stereo not drawn) [Ex. 7A]	480	< 1	26.6	+		
CCCCCC(CN(C)C)(c1ccccc1)n1ccnc1 (stereo not drawn) [Ex. 8B]	562	2.15	9	+	346	activity relative to 1-benzyl imidazole (thromboxane synthetase [2]; washed rabbit platelets): equal to clearly superior activity
CCC(Cn1ccnc1-c1ccccc1)(c1ccccc1)N(C)C (stereo not drawn) [Ex. 5A]		50				

From patent US4734428A, “Aminoethylimidazole and cytoprotective and gastric antisecretory composition containing the same” (Jouveinal S.A., priority 1984, dated 1988)
